Experimental data from patent US20120190707A1, “SELECTIVE INHIBITORS OF AKT AND METHODS OF USING SAME” (priority 2008, published 2012).

Tests used:
ATM-CHK2 axis = assay: ATM and CHK2 phosphorylation (DNA damage response) western analysis in UACC903 cells; type: cell-based, human
Experimental: UACC903 melanoma cells were exposed to vehicle control or 10 μM BI-69A11 for 1 h prior to γ-irradiation (10 Gray). Cells were harvested at the indicated time points post-irradiation and whole cell lysates were subjected to western analysis for phosphorylated ATM, total ATM, phosphorylated Chk2, and PLCγ (as loading control).
FIG. 14 is an assessment of BI-69A11 analogs on Chk2 phosphorylation. UACC903 melanoma cells were exposed to vehicle control, 10 μM BI-69A11, or 10 μM analog for 2 h. Cells were harvested and whole cell lysates were subjected to western analysis for phosphorylated Chk2 and PLCγ (as loading control).
To accomplish this, we g-irradiated vehicle- or BI69A11-treated cells and examined ATM and CHK2 phosphorylation, a well-characterized surrogate of activation (FIG. 13). In vehicle-treated cells, g-irradiation led to the robust phosphorylation of ATM and CHK2.
We next examined the panel of BI-69A11 analogs for their ability to stimulate CHK2 phosphorylation in UACC903 cells (FIG. 14).
For western blotting techniques, cells were lysed in RIPA buffer containing 50 mM TrisHCl pH7.4, 150 mM NaCl, 2 mM EDTA, 1% NP-40, 0.1% SDS. The protein concentration was estimated using the Coomassie Protein assay kit (Thermo Scientific, Rockford, Ill., USA). Equal concentrations of cell lysate (30-50 ug) were resolved on a 10% polyacrylamide gel and transferred onto Nitrocellulose membrane (GE Amersham). Membranes were blocked for 1-2 hours in either 3% BSA or 5% nonfat dried milk in Tris-buffered saline containing 0.05% Tween 20. Primary antibody incubations were performed overnight at 4° C. with shaking. The blots were washed followed by incubation with a secondary antibody incubation for 1 hour at room temperature. After washing, the blots were scanned on the Odyssey Licor scanner at the appropriate wavelength and the image was captured using the Odyssey software.

[1] = tested on: AKT association with HSP90; assay: AKT association with HSP90, immunoprecipitation from melanoma cells; type: cell-based, human; settings: 10.micro.M, 4 h
Experimental: FIG. 6 describes the effect of BI-69A11 on phosphorylation and total levels of AKT in UACC 903 (PTEN−) cells. (A) UACC903 and the modified clone 29-1 (PTEN+) cells were exposed to 10 micro.M BI-69A11 and 50 micro.M LY294002 (a PI3K inhibitor) and the levels of pAKT473 and total AKT determined by western analysis. […] (SF=Serum Free). (B) BI-69A11 inhibits PRAS40 phosphorylation. UACC903 melanoma cells or 29-1 cells (PTEN+) were subjected to treatment with IGF-1 (20 ng/mL) and the level of PRAS40 phosphorylation was assessed. […] The cells were collected, lysed and levels of pPRAS40 and total PRAS40 determined by western analysis. (C) AKT association with HSP90 is inhibited by BI-69A11. Human melanoma cells were treated with BI-69A11 (10.micro.M) or DMSO control for 4 h, followed by protein preparation and immunoprecipitation using antibodies to pan-AKT. MG132 treatment, when used, initiated 1 h prior to treatment and lasted up to the preparation of proteins (total of 5 h). The right panel depicts analysis of total lysates.
Among cellular proteins implicated in the regulation of AKT levels is the cellular chaperone HSP90. […] Thus we assessed whether association of AKT with HSP90 could be affected by BI-69A11. […]

AKT = AKT expression by western blot in MCF7 breast cancer cells; type: cell-based; settings: MCF7, 5 and 10 micro.M
Experimental: (A) MeWo melanoma cells growing in 60 mm plates were treated with the indicated concentration of the inhibitor for 4 h before proteins were prepared for western blot analysis using the indicated antibodies. Level of beta.actin was monitored as a control for protein loading. (B) Experiment was performed as indicated in panel A, except that cells were harvested after 24 h for analysis of cell death using trypan blue staining. (C) Melanoma (MeWo), prostate cancer (PC3) and breast cancer (MCF7) cells were treated with BI-69A11 at the indicated concentrations; levels of AKT phosphorylation or expression were assessed 4 h later. The level of beta.actin used as a control for protein loading. (D) Experiment was performed as indicated in panel C, except that cells were harvested after 4 h for analysis of cell death using trypan blue staining.
For western blotting techniques, cells were lysed in RIPA buffer containing 50 mM TrisHCl pH7.4, 150 mM NaCl, 2 mM EDTA, 1% NP-40, 0.1% SDS. The protein concentration was estimated using the Coomassie Protein assay kit (Thermo Scientific, Rockford, Ill., USA). Equal concentrations of cell lysate (30-50 ug) were resolved on a 10% polyacrylamide gel and transferred onto Nitrocellulose membrane (GE Amersham). Membranes were blocked for 1-2 hours in either 3% BSA or 5% nonfat dried milk in Tris-buffered saline containing 0.05% Tween 20. […]

O=C(/C=C/c1nc2ccccc2[nH]1)c1c(O)nc2ccc(Cl)cc2c1-c1ccccc1 [Compound 2, (E)-3-(3-(1H-benzo[d]imidazol-2-yl)acryloyl)-6-chloro-4-phenylquinolin-2(1H)-one]
ATM and CHK2 phosphorylation in the absence of radiation (ATM-CHK2 axis; 10 μM): leads to ATM and CHK2 phosphorylation | ATM or CHK2 phosphorylation following g-irradiation (ATM-CHK2 axis; 10 μM for 1 h prior to γ-irradiation (10 Gray)): did not inhibit | CHK2 phosphorylation / activation (ATM-CHK2 axis; 10 μM for 2 h): induced the activation of CHK2 to a similar extent | AKT association with HSP90 [1]: abolished | AKT protein levels (AKT): not affected
